Bridge positions count the residues as written; N and C are the ends. Square brackets hold non-standard residues; d marks the D form. Peptide text beside a SMILES is read from it. * marks the point of attachment. ξ: configuration not given here. dPhe(3-CF3) = N[C@H](Cc1cccc(C(F)(F)F)c1)C(=O)O; Phe(4-CONH2) = NC(=O)c1ccc(C[C@H](N)C(=O)O)cc1; Phe(4-COOH) = N[C@@H](Cc1ccc(C(=O)O)cc1)C(=O)O; Bip = N[C@@H](Cc1ccc(-c2ccccc2)cc1)C(=O)O; Phe(3-Cl) = N[C@@H](Cc1cccc(Cl)c1)C(=O)O; Phe(3-Me) = Cc1cccc(C[C@H](N)C(=O)O)c1; Phe(4-F) = N[C@@H](Cc1ccc(F)cc1)C(=O)O; Bta = N[C@@H](Cc1csc2ccccc12)C(=O)O; Val(3-OH) = CC(C)(O)[C@H](N)C(=O)O; 4Pal = N[C@@H](Cc1ccncc1)C(=O)O; Cha = N[C@@H](CC1CCCCC1)C(=O)O; Ile(3ξ) = CCC(C)[C@H](N)C(=O)O; Thr(3ξ) = CC(O)[C@H](N)C(=O)O; NMeNle = CCCC[C@H](NC)C(=O)O; Carboxymethyl = O=C(O)C*; NMeA = CN[C@@H](C)C(=O)O; Orn = NCCC[C@H](N)C(=O)O; Dab = NCC[C@H](N)C(=O)O; Nva = CCC[C@H](N)C(=O)O; Dap = NC[C@H](N)C(=O)O; Piv = CC(C)(C)C(=O)*
Molecular target: T1, PE-labeled human PD-L1-Ig binding to Jurkat cell line over-expressing human PD-1 (Jurkat-PD-1) (Homo sapiens, UniProt Q15116)
T1 construct: expressed in transfected cells; host or cells: Jurkat
T1 sequence (Q15116 25-288): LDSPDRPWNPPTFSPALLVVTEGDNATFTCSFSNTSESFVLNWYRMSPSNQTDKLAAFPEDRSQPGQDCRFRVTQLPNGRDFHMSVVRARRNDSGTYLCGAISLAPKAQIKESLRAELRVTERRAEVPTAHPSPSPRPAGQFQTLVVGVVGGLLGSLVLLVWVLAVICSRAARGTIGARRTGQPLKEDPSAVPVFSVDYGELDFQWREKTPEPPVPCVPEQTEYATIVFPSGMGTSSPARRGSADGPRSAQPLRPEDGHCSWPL
Test: Jurkat-PD-1 Cell Binding High-Content Screening Assay (CBA): Method 1
Conditions: Jurkat-hPD-1 cells, PE-labeled PD-L1-Ig 20 nM final; read-out: Jurkat HPDL1 PD1 IC50 (uM) (Method 1)

## Cc1cccc(C[C@@H]2NC(=O)[C@H](CC(=O)O)NC(=O)[C@H](Cc3ccc(C(=O)O)cc3)NC(=O)[C@H](Cc3ccc(F)cc3)NC(=O)CSC[C@@H](C(=O)N[C@@H](CCN)C(N)=O)NC(=O)[C@H](CCC(=O)O)NC(=O)[C@H](C(C)O)NC(=O)[C@H](CC3CCCCC3)NC(=O)[C@H](CCN)NC(=O)[C@@H](CC(C)C)NC(=O)[C@H](C)N(C)C(=O)[C@H](Cc3ccc(C(=O)O)cc3)NC(=O)[C@H](Cc3ccc(-c4ccccc4)cc3)NC(=O)[C@H](Cc3ccc(C(=O)O)cc3)NC2=O)c1 (stereo partly drawn) [Compound 2209] ({CH2CO}-[Phe(4-F)][Phe(4-COOH)]D[Phe(3-Me)][Phe(4-COOH)][Bip][Phe(4-COOH)][NMeA][dL][Dab][Cha][Thr(3ξ)]EC[Dab]-NH2; thioether N-14)
  IC50: 0.01 µM

## Cc1cccc(C[C@@H]2NC(=O)[C@H](CC(=O)O)NC(=O)[C@H](Cc3ccc(OCC(=O)O)cc3)NC(=O)[C@H](CN)NC(=O)CSC[C@@H](C(=O)N[C@@H](CCN)C(N)=O)NC(=O)[C@H](CCCN)NC(=O)[C@H](C(C)C)NC(=O)[C@H](CC3CCCCC3)NC(=O)[C@H](CCN)NC(=O)[C@@H](C)NC(=O)[C@H](C)N(C)C(=O)[C@H](Cc3ccc(O)cc3)NC(=O)[C@H](Cc3ccc(-c4ccccc4)cc3)NC(=O)[C@H](Cc3ccc(O)cc3)NC2=O)c1 [Compound 1875] ({CH2CO}-[Dap]Y(Carboxymethyl)D[Phe(3-Me)]Y[Bip]Y[NMeA][dA][Dab][Cha]V[Orn]C[Dab]-NH2; thioether N-14)
  IC50: 0.05 µM

## CC(C)C[C@@H]1NC(=O)CSC[C@@H](C(=O)N[C@@H](C)C(N)=O)NC(=O)[C@H](CO)NC(=O)[C@H](C(C)C)NC(=O)[C@H](CC(C)C)NC(=O)[C@H](CCCNC(=N)N)NC(=O)[C@H](Cc2csc3ccccc23)NC(=O)[C@H](C)N(C)C(=O)[C@H](CCCNC(=N)N)NC(=O)[C@H](Cc2ccc(-c3ccccc3)cc2)NC(=O)[C@H](C(C)C)NC(=O)[C@H](Cc2c[nH]c3ccccc23)NC(=O)[C@H](CC(=O)O)NC(=O)[C@H](Cc2ccc(O)cc2)NC1=O [Compound 1041] ({CH2CO}-LYDWV[Bip]R[NMeA][Bta]RLVSCA-NH2; thioether N-14)
  IC50: 0.31 µM

## CCC[C@@H]1NC(=O)[C@H](Cc2ccc(-c3ccccc3)cc2)NC(=O)[C@H](C(C)C)NC(=O)[C@H](Cc2c[nH]c3ccccc23)NC(=O)[C@H](CC(=O)O)NC(=O)[C@H](Cc2ccc(O)cc2)NC(=O)[C@H](CC(N)=O)NC(=O)CSC[C@@H](C(=O)N[C@@H](C)C(N)=O)NC(=O)[C@H]([C@@H](C)O)NC(=O)[C@H](C(C)C)NC(=O)[C@H](CC(C)C)NC(=O)[C@H](CCN)NC(=O)[C@@H](CC(C)C)NC(=O)[C@H](C)N(C)C1=O [Compound 1258] ({CH2CO}-NYDWV[Bip][Nva][NMeA][dL][Dab]LVTCA-NH2; thioether N-14)
  IC50: 0.04 µM

## CC(C)C[C@@H]1NC(=O)[C@H](CCN)NC(=O)[C@@H](CC(C)C)NC(=O)[C@H](C)N(C)C(=O)[C@H](CCCNC(=N)N)NC(=O)[C@H](Cc2ccc(-c3ccccc3)cc2)NC(=O)[C@H](C(C)C)NC(=O)[C@H](Cc2c[nH]c3ccccc23)NC(=O)[C@H](CC(=O)O)NC(=O)[C@H](Cc2cccc(Cl)c2)NC(=O)[C@H](CC(N)=O)NC(=O)CSC[C@@H](C(=O)N[C@@H](C)C(N)=O)NC(=O)[C@H]([C@@H](C)O)NC(=O)[C@H](C(C)C)NC1=O [Compound 1316] ({CH2CO}-N[Phe(3-Cl)]DWV[Bip]R[NMeA][dL][Dab]LVTCA-NH2; thioether N-14)
  IC50: 0.05 µM

## CC(C)C[C@@H]1NC(=O)[C@H](CCN)NC(=O)[C@@H](CC(C)C)NC(=O)[C@H](C)N(C)C(=O)[C@H](C(C)C)NC(=O)[C@H](Cc2ccc(-c3ccccc3)cc2)NC(=O)[C@H](C(C)C)NC(=O)[C@H](Cc2c[nH]c3ccccc23)NC(=O)[C@H](CC(=O)O)NC(=O)[C@H](Cc2ccc(C(=O)O)cc2)NC(=O)[C@H](CC(N)=O)NC(=O)CSC[C@@H](C(=O)N[C@@H](C)C(N)=O)NC(=O)[C@H]([C@@H](C)O)NC(=O)[C@H](C(C)C)NC1=O [Compound 1378] ({CH2CO}-N[Phe(4-COOH)]DWV[Bip]V[NMeA][dL][Dab]LVTCA-NH2; thioether N-14)
  IC50: 0.01 µM

## CC[C@H](C)[C@@H]1NC(=O)[C@H](Cc2ccc(-c3ccccc3)cc2)NC(=O)[C@H](C(C)C)NC(=O)[C@H](Cc2c[nH]c3ccccc23)NC(=O)[C@H](CC(=O)O)NC(=O)[C@H](Cc2ccc(O)cc2)NC(=O)[C@H](Cc2ccncc2)NC(=O)CSC[C@@H](C(N)=O)NC(=O)[C@H]([C@@H](C)O)NC(=O)[C@H](C(C)C)NC(=O)[C@H](CC(C)C)NC(=O)[C@H](CCN)NC(=O)[C@@H](CC(C)C)NC(=O)[C@H](C)N(C)C1=O [Compound 1632] ({CH2CO}-[4Pal]YDWV[Bip]I[NMeA][dL][Dab]LVTC-NH2; thioether N-14)
  IC50: 0.13 µM

## CC(C)C[C@@H]1NC(=O)[C@H](CCCNC(=N)N)NC(=O)[C@@H](Cc2cccc(C(F)(F)F)c2)NC(=O)[C@H](C)N(C)C(=O)[C@H](CCCNC(=N)N)NC(=O)[C@H](Cc2ccc(-c3ccccc3)cc2)NC(=O)[C@H](C(C)C)NC(=O)[C@H](Cc2c[nH]c3ccccc23)NC(=O)[C@H](CC(=O)O)NC(=O)[C@H](Cc2ccc(O)cc2)NC(=O)[C@H](Cc2ccccc2)NC(=O)CSC[C@@H](C(=O)N[C@@H](C)C(N)=O)NC(=O)[C@H]([C@@H](C)O)NC(=O)[C@H](C(C)C)NC1=O [Compound 1075] ({CH2CO}-FYDWV[Bip]R[NMeA][dPhe(3-CF3)]RLVTCA-NH2; thioether N-14)
  IC50: 0.55 µM

## CCCC[C@H]1C(=O)N[C@H](CC(C)C)C(=O)N[C@@H](CCN)C(=O)N[C@@H](CC(C)C)C(=O)N[C@@H](C(C)C)C(=O)N[C@@H](CO)C(=O)N[C@H](C(=O)N[C@@H](CC(N)=O)C(=O)O)CSCC(=O)N[C@@H](C(C)O)C(=O)N[C@@H](Cc2ccc(OCC(=O)O)cc2)C(=O)N[C@@H](CC(=O)O)C(=O)N[C@@H](Cc2c[nH]c3ccccc23)C(=O)N[C@@H](CC(C)C)C(=O)N[C@@H](Cc2ccc(-c3ccccc3)cc2)C(=O)N[C@@H](C(C)CC)C(=O)N1C (stereo partly drawn) [Compound 2229] ({CH2CO}-[Thr(3ξ)]Y(Carboxymethyl)DWL[Bip][Ile(3ξ)][NMeNle][dL][Dab]LVSCN-OH; thioether N-14)
  IC50: 0.11 µM

## CC(C)C[C@@H]1NC(=O)[C@H](CCN)NC(=O)[C@@H](CC(C)C)NC(=O)[C@H](C)N(C)C(=O)[C@H](CCC(=O)O)NC(=O)[C@H](Cc2ccc(-c3ccccc3)cc2)NC(=O)[C@H](C(C)C)NC(=O)[C@H](Cc2c[nH]c3ccccc23)NC(=O)[C@H](CC(=O)O)NC(=O)[C@H](Cc2ccc(O)cc2)NC(=O)[C@H](Cc2ccccc2)NC(=O)CSC[C@@H](C(=O)N[C@@H](C)C(N)=O)NC(=O)[C@H]([C@@H](C)O)NC(=O)[C@H](C(C)C)NC1=O [Compound 1134] ({CH2CO}-FYDWV[Bip]E[NMeA][dL][Dab]LVTCA-NH2; thioether N-14)
  IC50: 0.11 µM

## CCCC[C@H]1C(=O)N[C@H](C)C(=O)N[C@@H](CCN)C(=O)N[C@@H](CC2CCCCC2)C(=O)N[C@@H](C(C)C)C(=O)N[C@@H](CO)C(=O)N[C@H](C(=O)N[C@@H](CC(N)=O)C(N)=O)CSCC(=O)N[C@@H](Cc2ccncc2)C(=O)N[C@@H](Cc2ccc(C(=O)O)cc2)C(=O)N[C@@H](CC(=O)O)C(=O)N[C@@H](Cc2c[nH]c3ccccc23)C(=O)N[C@@H](C(C)C)C(=O)N[C@@H](Cc2ccc(-c3ccccc3)cc2)C(=O)N[C@@H](CCCN)C(=O)N1C [Compound 2090] ({CH2CO}-[4Pal][Phe(4-COOH)]DWV[Bip][Orn][NMeNle][dA][Dab][Cha]VSCN-NH2; thioether N-14)
  IC50: 0.14 µM

## Cc1cccc(C[C@@H]2NC(=O)[C@H](CC(=O)O)NC(=O)[C@H](Cc3ccc(OCC(=O)O)cc3)NC(=O)[C@H](Cc3ccncc3)NC(=O)CSC[C@@H](C(=O)N[C@@H](CO)C(N)=O)NC(=O)[C@H](CO)NC(=O)[C@H](C(C)(C)O)NC(=O)[C@H](CC3CCCCC3)NC(=O)[C@H](CCN)NC(=O)[C@@H](CC(C)C)NC(=O)[C@H](C)N(C)C(=O)[C@H](Cc3ccc(C(=O)O)cc3)NC(=O)[C@H](Cc3ccc(-c4ccccc4)cc3)NC(=O)[C@H](Cc3ccc(C(N)=O)cc3)NC2=O)c1 [Compound 2180] ({CH2CO}-[4Pal]Y(Carboxymethyl)D[Phe(3-Me)][Phe(4-CONH2)][Bip][Phe(4-COOH)][NMeA][dL][Dab][Cha][Val(3-OH)]SCS-NH2; thioether N-14)
  IC50: 0.02 µM

## Cc1cccc(C[C@@H]2NC(=O)[C@H](CC(=O)O)NC(=O)[C@H](Cc3ccc(OCC(=O)O)cc3)NC(=O)[C@H](CN)NC(=O)CSC[C@@H](C(=O)N[C@@H](CCNC(=O)C(C)(C)C)C(N)=O)NC(=O)[C@H]([C@@H](C)O)NC(=O)[C@H](C(C)C)NC(=O)[C@H](CC3CCCCC3)NC(=O)[C@H](CCN)NC(=O)[C@@H](CC(C)C)NC(=O)[C@H](C)N(C)C(=O)[C@H](Cc3ccc(OCC(=O)O)cc3)NC(=O)[C@H](Cc3ccc(-c4ccccc4)cc3)NC(=O)[C@H](Cc3ccc(OCC(=O)O)cc3)NC2=O)c1 [Compound 1866] ({CH2CO}-[Dap]Y(Carboxymethyl)D[Phe(3-Me)]Y(Carboxymethyl)[Bip]Y(Carboxymethyl)[NMeA][dL][Dab][Cha]VTC[Dab](Piv)-NH2; thioether N-14)
  IC50: 0.05 µM

## Cc1cccc(C[C@@H]2NC(=O)[C@H](CC(=O)O)NC(=O)[C@H](Cc3ccc(C(=O)O)cc3)NC(=O)[C@H](Cc3ccncc3)NC(=O)CSC[C@@H](C(=O)N[C@@H](C)C(N)=O)NC(=O)[C@H]([C@@H](C)O)NC(=O)[C@H](C(C)C)NC(=O)[C@H](CC(C)C)NC(=O)[C@H](CCN)NC(=O)[C@@H](CC(C)C)NC(=O)[C@H](C)N(C)C(=O)[C@H](C(C)C)NC(=O)[C@H](Cc3ccc(-c4ccccc4)cc3)NC(=O)[C@H](C(C)C)NC2=O)c1 [Compound 1420] ({CH2CO}-[4Pal][Phe(4-COOH)]D[Phe(3-Me)]V[Bip]V[NMeA][dL][Dab]LVTCA-NH2; thioether N-14)
  IC50: 0.01 µM

## CC(C)C[C@@H]1NC(=O)[C@H](Cc2c[nH]c3ccccc23)NC(=O)[C@H](CC(=O)O)NC(=O)[C@H](Cc2ccc(O)cc2)NC(=O)[C@H](Cc2ccccc2)NC(=O)CSC[C@@H](C(=O)N[C@@H](C)C(N)=O)NC(=O)[C@H]([C@@H](C)O)NC(=O)[C@H](C(C)C)NC(=O)[C@H](CC(C)C)NC(=O)[C@H](CC(N)=O)NC(=O)[C@@H](C)NC(=O)[C@H](C)N(C)C(=O)[C@H](C(C)C)NC(=O)[C@H](Cc2ccc(-c3ccccc3)cc2)NC1=O [Compound 1744] ({CH2CO}-FYDWL[Bip]V[NMeA][dA]NLVTCA-NH2; thioether N-14)
  IC50: 0.02 µM

— US20240409585A1, “MACROCYCLIC IMMUNOMODULATORS” (priority 2021, published 2024)
